Inhibition and IC50 data for 39 compounds are collected here from patent US20050009840A1 (SUGEN, INC., priority 2003, published 2005).

Each structure is given as a SMILES string. Values joined by “and” are separate entries in the source; they are usually repeats but may differ in a detail not shown here. Equal values may be shown once.

What is called inhibition is the share of the control response that was lost under treatment. Broadly, the IC50 is the midpoint of a concentration-inhibition curve.

For one assay, the target named is T1, Met kinase domain (GST fusion protein) (Homo sapiens, UniProt P08581).
T1 construct: Purified GST fusion protein containing the Met kinase domain
T1 sequence (P08581 1078-1345 limits assumed): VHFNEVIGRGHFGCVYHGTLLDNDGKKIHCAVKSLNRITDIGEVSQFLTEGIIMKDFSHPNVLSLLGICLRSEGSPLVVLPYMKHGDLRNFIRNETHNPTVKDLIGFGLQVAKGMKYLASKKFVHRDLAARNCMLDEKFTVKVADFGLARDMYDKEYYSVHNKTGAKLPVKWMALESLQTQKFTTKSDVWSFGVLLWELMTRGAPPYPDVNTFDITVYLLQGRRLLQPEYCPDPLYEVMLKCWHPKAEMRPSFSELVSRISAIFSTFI
Kind of assay: Met transphosphorylation assay (ELISA, poly(glu-tyr) substrate).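 Note: Cell-free ELISA with plate-bound poly(Glu:Tyr 4:1) phosphorylated by GST-fused Met kinase domain plus ATP and Mn2+, phosphotyrosine detected by anti-phosphotyrosine antibody with HRP and ABTS read-out.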 The note with it: at 20 μM; read-out: Met inhibition (printed in the Met IC50 column). Type of assay: biochemical.
For `Nc1ncc(Br)cc1OCc1c(F)cccc1F` [I(c)], the inhibition at 20 µM turned out to be 40%.

Still in this assay, the particulars now being: plain numbers in column Met IC50 (μM) of Table 2; read-out: Met IC50.
As to `CC(Oc1cc(OCc2ccccn2)cnc1N)c1c(F)ccc(F)c1Cl` (stereo not drawn) [Example I-539, 3-[1-(2-Chloro-3,6-difluoro-phenyl)-ethoxy]-5-(pyridin-2-ylmethoxy)-pyridin-2-ylamine], the IC50 is 3.2 µM.
With `CC(Oc1cc(OCc2ccncc2)cnc1N)c1c(F)ccc(F)c1Cl` (stereo not drawn) [Example I-540, 3-[1-(2-Chloro-3,8-difluoro-phenyl)-ethoxy]-5-(pyridin-4-ylmethoxy)-pyridin-2-ylamine], the IC50 amounted to 0.8 µM.
On to `CC(Oc1cc(-c2ccc(C(=O)N3CCN(C)CC3)cc2)cnc1N)c1c(Cl)ccc(F)c1Cl` (stereo not drawn) [Example I-541, (4-{6-Amino-5-[1-(2,6-dichloro-3-fluoro-phenyl)-ethoxy]-pyridin-3-yl}-phenyl)-(4-methyl-piperazin-1-yl)-methanone], for which the IC50 worked out at 0.079 µM.

The same assay, now with this note: read-out: Met IC50.
For the compound `Nc1ncc(Br)cc1OCc1c(Cl)cccc1Cl` [I(a), 5-Bromo-3-(2,6-dichloro-benzyloxy)-pyridin-2-ylamine], the IC50 came to 5.3 µM.
`Nc1ncc(Br)cc1OCc1ccccc1` [I(b), 3-Benzyloxy-5-bromo-pyridin-2-ylamine]: the IC50 is more than 20 µM.
Take `Nc1ncc(Br)cc1OCc1ccccc1Br` [I(d), 5-Bromo-3-(2-bromo-benzyloxy)-pyridin-2-ylamine]: the concentration for half-maximal inhibition (IC50) is more than 20 µM.
Still for that read-out and setting: as for `Nc1ncc(Br)cc1OCc1c(F)cccc1Cl` [I(e), 5-Bromo-3-(2-chloro-6-fluoro-benzyloxy)-pyridin-2-ylamine], the figure is 20 µM.
The same measure, in the same setting: as for `Nc1ncc(Br)cc1OCc1c(F)ccc(F)c1Cl` [I(l), 5-Bromo-3-(2-chloro-3.6-difluoro-benzyloxy)-pyridin-2-ylamine], the figure is 5.3 µM; as for `Nc1ncc(Br)nc1OCc1c(Cl)cccc1Cl` [II(a), 5-Bromo-3-(2,6-dichloro-benzyloxy)-pyrazin-2-ylamine], more than 20 µM.
Still for that read-out and setting: the result for `Nc1ncc(Br)nc1OCc1c(F)ccc(F)c1Cl` [II(b), 5-Bromo-3-(2-chloro-3,6-difluoro-benzyloxy)-pyrazin-2-ylamine] reads more than 20 µM; that for `CC(Oc1nc(Br)cnc1N)c1c(F)ccc(F)c1Cl` (stereo not drawn) [II(c), 5-Bromo-3-[1-(2-chloro-3,6-difluoro-phenyl)-ethoxy]-pyrazin-2-ylamine], 1.81 µM and 2.67 µM; that for `CC(C)C(Oc1nc(Br)cnc1N)c1c(F)ccc(F)c1Cl` (stereo not drawn) [II(d), 5-Bromo-3-[1-(2-chloro-3,6-difluoro-phenyl)-2-methyl-propoxy]-pyrazin-2-ylamine], 18.1 µM.
In the case of `CC(Oc1nc(Br)cnc1N)c1c(Cl)ccc(F)c1Cl` (stereo not drawn) [II(e), 5-Bromo-3-[1-(2,6-dichloro-3-fluoro-phenyl)-ethoxy]-pyrazin-2-ylamine], the IC50 was 0.24 µM and 0.66 µM and 1.3 µM.
On to `Nc1ncc(-c2ccc(O)cc2)nc1OCc1c(Cl)cccc1Cl` [II-1, 4-[5-Amino-6-(2,6-dichloro-benzyloxy)-pyrazin-2-yl]-phenol], for which the half-inhibitory concentration (IC50) came to 1.35 µM.
On the same count and under the same terms, as for `Nc1ncc(-c2ccc(N3CCCS3(=O)=O)cc2)nc1OCc1c(Cl)cccc1Cl` [II-2, 3-(2,6-Dichloro-benzyloxy)-5-[4-(1,1-dioxo-1λ^6-isothiazolidin-2-yl)-phenyl]-pyrazin-2-ylamine], the figure is 0.825 µM; as for `Nc1ncc(-c2cccc(OCCN3CCOCC3)c2)nc1OCc1c(Cl)cccc1Cl` [II-3, 3-(2,6-Dichloro-benzyloxy)-5-[3-(2-morpholin-4-yl-ethoxy)-phenyl]-pyrazin-2-ylamine], 0.74 µM.
The same measure, in the same setting: the result for `Nc1ncc(-c2ccc(OCCN3CCOCC3)cc2)nc1OCc1c(Cl)cccc1Cl` [II-4, 3-(2,6-Dichloro-benzyloxy)-5-[4-(2-morpholin-4-yl-ethoxy)-phenyl]-pyrazin-2-ylamine] reads 1.25 µM; that for `Nc1ccc(-c2cnc(N)c(OCc3c(Cl)cccc3Cl)n2)cc1` [II-5, 5-(4-Amino-phenyl)-3-(2,6-dichloro-benzyloxy)-pyrazin-2-ylamine], 0.94 µM.
As to `Nc1ncc(-c2ccc(C(=O)O)cc2)nc1OCc1c(Cl)cccc1Cl` [II-6, 4-[5-amino-6-(2,6-dichloro-benzyloxy)-pyrazin-2-yl]-benzoic acid], the IC50 was found to be 1.75 µM.
The same measure, in the same setting: the result for `Nc1ncc(-c2ccc(C(=O)N3CCC[C@@H]3CN3CCCC3)cc2)nc1OCc1c(Cl)cccc1Cl` [II-7, {4-[5-Amino-6-(2,6-dichloro-benzyloxy)-pyrazin-2-yl]-phenyl)[(2R)-2-pyrrolidin-1-ylmethyl-pyrrolidin-1-yl]-methanone] reads 0.24 µM; that for `Nc1ncc(-c2ccc(C(=O)N3CCC(N4CCCC4)CC3)cc2)nc1OCc1c(Cl)cccc1Cl` [II-8], 0.56 µM; that for `Nc1ncc(-c2ccc(NS(=O)(=O)CCN3CCOCC3)cc2)nc1OCc1c(F)ccc(F)c1Cl` [II-9, 2-Morpholin-4-yl-ethanesulfonic acid {4-[5-amino-6-(2-chloro-3,6-difluoro-benzyloxy)-pyrazin-2-yl]-phenyl}-amide], 1.26 µM.
Same read-out and setting: the result for `Nc1ncc(-c2ccc(NS(=O)(=O)CCN3CCCCC3)cc2)nc1OCc1c(F)ccc(F)c1Cl` [II-10, 2-Piperidin-1-yl-ethanesulfonic acid {4-[5-amino-6-(2-chloro-3,6-difluoro-benzyloxy)-pyrazin-2-yl]-phenyl}-amide] reads 1.2 µM.
For the compound `Nc1ncc(-c2ccc(NS(=O)(=O)CCN3CCC(O)CC3)cc2)nc1OCc1c(F)ccc(F)c1Cl` [II-11, 2-(4-Hydroxy-piperidin-1-yl)-ethanesulfonic acid {4-[5-amino-6-(2-chloro-3,6-difluoro-benzyloxy)-pyrazin-2-yl]-phenyl}-amide], the IC50 was 0.65 µM.
Regarding `Nc1ncc(-c2ccc(NS(=O)(=O)CCN3CCCC3)cc2)nc1OCc1c(F)ccc(F)c1Cl` [II-12, 2-Pyrrolidin-1-yl-ethanesulfonic acid {4-[5-amino-6-(2-chloro-3,6-difluoro-benzyloxy)-pyrazin-2-yl]-phenyl}-amide], the IC50 is 0.58 µM.
On the same count and under the same terms, the result for `Nc1ncc(-c2ccc(NS(=O)(=O)CCN3CC[C@@H](O)C3)cc2)nc1OCc1c(F)ccc(F)c1Cl` [II-13, 2-[(3R)-3-Hydroxy-pyrrolidin-1-yl]-ethanesulfonic acid {4-[5-amino-6-(2-chloro-3,6-difluoro-benzyloxy)-pyrazin-2-yl]-phenyl}-amide] reads 1.59 µM; that for `Nc1ncc(-c2ccc(NS(=O)(=O)CCN3CCC[C@H]3CO)cc2)nc1OCc1c(F)ccc(F)c1Cl` [II-14, 2-[(2S)-2-Hydroxymethyl-pyrrolidin-1-yl]-ethanesulfonic acid {4-[5-amino-6-(2-chloro-3,6-difluoro-benzyloxy)-pyrazin-2-yl]-phenyl}-amide], 1.78 µM.
Still for that read-out and setting: the result for `Nc1ncc(-c2ccc(NS(=O)(=O)CCNCC3CC3)cc2)nc1OCc1c(F)ccc(F)c1Cl` [II-15, 2-(Cyclopropylmethyl-amino)-ethanesulfonic acid {4-[5-amino-6-(2-chloro-3,6-difluoro-benzyloxy)-pyrazin-2-yl]-phenyl}-amide] reads 1.28 µM; that for `CN(C)CCS(=O)(=O)Nc1ccc(-c2cnc(N)c(OCc3c(F)ccc(F)c3Cl)n2)cc1` [II-16, 2-Dimethylamino-ethanesulfonic acid {4-[5-amino-6-(2-chloro-3,6-difluoro-benzyloxy)-pyrazin-2-yl]-phenyl}-amide], 0.91 µM.
With `CC(=O)N1CCN(CCS(=O)(=O)Nc2ccc(-c3cnc(N)c(OCc4c(F)ccc(F)c4Cl)n3)cc2)CC1` [II-18, 2-(4-Acetyl-piperazin-1-yl)-ethanesulfonic acid {4-[5-amino-6-(2-chloro-3,6-difluoro-benzyloxy)-pyrazin-2-yl]-phenyl}-amide], the IC50 was 1.5 µM.
The same measure, in the same setting: as for `Nc1ncc(-c2ccc(NS(=O)(=O)CCNC3CC3)cc2)nc1OCc1c(F)ccc(F)c1Cl` [II-20, 2-Cyclopropylamino-ethanesulfonic acid {4-[5-amino-6-(2-chloro-3,6-difluoro-benzyloxy)-pyrazin-2-yl]-phenyl}-amide], the figure is 1.29 µM; as for `Nc1ncc(-c2cccc(NS(=O)(=O)CCN3CCC(O)CC3)c2)nc1OCc1c(F)ccc(F)c1Cl` [II-22, 2-(4-Hydroxy-piperidin-1-yl)-ethanesulfonic acid {3-[5-amino-6-(2-chloro-3,6-difluoro-benzyloxy)-pyrazin-2-yl]-phenyl}-amide], 0.7 µM; as for `CC(=O)N1CCN(CCS(=O)(=O)Nc2cccc(-c3cnc(N)c(OCc4c(F)ccc(F)c4Cl)n3)c2)CC1` [II-23, 2-(4-Acetyl-piperazin-1-yl)-ethanesulfonic acid {3-[5-amino-6-(2-chloro-3,6-difluoro-benzyloxy)-pyrazin-2-yl]-phenyl]-amide], 2.79 µM.
With `Nc1ncc(-c2cccc(NS(=O)(=O)CCN3CCCCC3)c2)nc1OCc1c(F)ccc(F)c1Cl` [II-24, 2-Piperidin-1-yl-ethanesulfonic acid {3-[5-amino-6-(2-chloro-3,6-difluoro-benzyloxy)-pyrazin-2-yl]-phenyl}-amide], the IC50 came out at 3.5 µM.
On the same count and under the same terms, as for `CCN(CC)CCS(=O)(=O)Nc1cccc(-c2cnc(N)c(OCc3c(F)ccc(F)c3Cl)n2)c1` [II-25, 2-Diethylamino-ethanesulfonic acid {3-[5-amino-6-(2-chloro-3,6-difluoro-benzyloxy)-pyrazin-2-yl]-phenyl}-amide], the figure is 3.7 µM.
Same read-out and setting: the result for `Nc1ncc(-c2cccc(NS(=O)(=O)CCN3CCOCC3)c2)nc1OCc1c(F)ccc(F)c1Cl` [II-26, 2-Morpholin-4-yl-ethanesulfonic acid {3-[5-amino-6-(2-chloro-3,6-difluoro-benzyloxy)-pyrazin-2-yl]-phenyl}-amide] reads 3.3 µM.
Same read-out and setting: the result for `Nc1ncc(-c2cccc(NS(=O)(=O)CCN3CCCC3)c2)nc1OCc1c(F)ccc(F)c1Cl` [II-27, 2-Pyrrolidin-1-yl-ethanesulfonic acid {3-[5-amino-6-(2-chloro-3,6-difluoro-benzyloxy)-pyrazin-2-yl]-phenyl}-amide] reads 1.8 µM; that for `CN(C)CCS(=O)(=O)Nc1cccc(-c2cnc(N)c(OCc3c(F)ccc(F)c3Cl)n2)c1` [II-28, 2-Dimethylamino-ethanesulfonic acid {3-[5-amino-6-(2-chloro-3,6-difluoro-benzyloxy)-pyrazin-2-yl]-phenyl}-amide], 2.28 µM.
